Measurements published in US7112589B2, “Cysteine protease inhibitors with 2-cyano-4-amino-pyrimidine structure and cathepsin k inhibitory activity for the treatment of inflammations and other diseases” (Novartis AG, priority 2001, dated 2006).

Target: T1, recombinant human cathepsin K (Homo sapiens, UniProt P43235)
T1 sequence (P43235 115-329): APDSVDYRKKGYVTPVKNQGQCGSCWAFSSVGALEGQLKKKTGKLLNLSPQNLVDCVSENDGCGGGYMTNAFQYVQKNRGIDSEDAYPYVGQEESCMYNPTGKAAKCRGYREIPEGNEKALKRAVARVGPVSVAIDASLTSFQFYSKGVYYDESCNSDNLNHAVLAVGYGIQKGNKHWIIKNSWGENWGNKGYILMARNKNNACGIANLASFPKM
Assay: in vitro inhibition of recombinant human cathepsin K (Z-Phe-Arg-AMCA fluorescence assay)
Type: biochemical
Details: recombinant human cathepsin K 0.16 nM, Z-Phe-Arg-AMCA substrate, pH 7.0, 30 min preincubation, 30 min incubation; read-out: IC50s for inhibition of human cathepsin K
Procedure: The in vitro assay is carried out as follows:
The assay is performed in 96 well microtiter plates at ambient temperature using recombinant human cathepsin K. Inhibition of cathepsin K is assayed at a constant enzyme (0.16 nM) and substrate concentration ([…] Z-Phe-Arg-AMCA-Peptide Institute Inc. Osaka, Japan) in 100 mM sodium phosphate buffer, pH 7.0, containing 2 mM dithiothreitol, 20 mM Tween 80 and 1 mM EDTA. Cathepsin K is preincubated with the inhibitors for 30 min, and the reaction is initiated by the addition of substrate. After 30 min incubation the reaction is stopped by the addition of E-64 (2 mM), and fluorescence intensity is read on a multi-well plate reader at excitation and emission wavelengths of 360 and 460 nm, respectively.

IC50	SMILES
3 nM	CN1CCN(Cc2ccc(C(=O)NCc3cnc(C#N)nc3NCC(C)(C)C)cc2)CC1 [Example I-22, N-[2-Cyano-4-(2,2-dimethyl-propylamino)-pyrimidin-5-ylmethyl]-4-(4-methyl-piperazin-1-ylmethyl)-benzamide]
1.5 nM	COCCN1CCC(Cc2ccc(C(=O)NCc3cnc(C#N)nc3NCC(C)(C)C)cc2)CC1 [Example I-23, N-[2-Cyano-4-(2,2-dimethyl-propylamino)-pyrimidin-5-ylmethyl]-4-[1-(2-methoxy-ethyl)-piperidin-4-ylmethyl]-benzamide]
